Converted amounts (≈) assume the structure as drawn.
Key:
[1] = biological target: T1, Penicillin-binding protein 1A (Streptococcus pneumoniae serotype 4 (strain ATCC BAA-334 / TIGR4), UniProt Q04707); test: Displacement of Biocillin FL from Streptococcus pneumoniae 3009 PBP1A
T1 sequence (Q04707 whole entry): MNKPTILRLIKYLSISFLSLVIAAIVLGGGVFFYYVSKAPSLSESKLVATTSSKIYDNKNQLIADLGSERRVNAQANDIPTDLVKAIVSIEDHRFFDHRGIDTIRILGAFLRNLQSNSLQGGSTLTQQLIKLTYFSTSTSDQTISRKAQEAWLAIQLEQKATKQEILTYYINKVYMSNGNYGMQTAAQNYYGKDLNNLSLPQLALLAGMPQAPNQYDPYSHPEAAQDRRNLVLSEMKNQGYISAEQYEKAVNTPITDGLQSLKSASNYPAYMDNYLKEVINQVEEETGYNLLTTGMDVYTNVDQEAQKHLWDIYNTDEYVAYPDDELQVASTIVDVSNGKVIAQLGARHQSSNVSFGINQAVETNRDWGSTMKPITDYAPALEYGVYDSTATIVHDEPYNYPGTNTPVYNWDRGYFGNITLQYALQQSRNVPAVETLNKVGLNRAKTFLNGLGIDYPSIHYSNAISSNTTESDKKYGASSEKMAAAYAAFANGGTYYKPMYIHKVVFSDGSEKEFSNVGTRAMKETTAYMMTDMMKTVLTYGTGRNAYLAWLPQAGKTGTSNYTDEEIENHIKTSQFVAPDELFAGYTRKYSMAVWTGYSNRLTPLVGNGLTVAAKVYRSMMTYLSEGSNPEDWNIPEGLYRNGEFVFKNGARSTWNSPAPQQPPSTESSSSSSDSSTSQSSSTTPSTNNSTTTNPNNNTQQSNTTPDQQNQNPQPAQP

[2] = Displacement of Biocillin FL from Streptococcus pneumoniae 3665 PBP2A
[3] = Displacement of Biocillin FL from Streptococcus pneumoniae 3009 PBP1B
[4] = Displacement of Biocillin FL from Streptococcus pneumoniae 24 PBP1B
[5] = biological target: T2, Penicillin-binding protein 2B (Streptococcus pneumoniae serotype 4 (strain ATCC BAA-334 / TIGR4), UniProt P0A3M5); test: Displacement of Biocillin FL from Streptococcus pneumoniae 3009 PBP2B
T2 sequence (P0A3M5 whole entry): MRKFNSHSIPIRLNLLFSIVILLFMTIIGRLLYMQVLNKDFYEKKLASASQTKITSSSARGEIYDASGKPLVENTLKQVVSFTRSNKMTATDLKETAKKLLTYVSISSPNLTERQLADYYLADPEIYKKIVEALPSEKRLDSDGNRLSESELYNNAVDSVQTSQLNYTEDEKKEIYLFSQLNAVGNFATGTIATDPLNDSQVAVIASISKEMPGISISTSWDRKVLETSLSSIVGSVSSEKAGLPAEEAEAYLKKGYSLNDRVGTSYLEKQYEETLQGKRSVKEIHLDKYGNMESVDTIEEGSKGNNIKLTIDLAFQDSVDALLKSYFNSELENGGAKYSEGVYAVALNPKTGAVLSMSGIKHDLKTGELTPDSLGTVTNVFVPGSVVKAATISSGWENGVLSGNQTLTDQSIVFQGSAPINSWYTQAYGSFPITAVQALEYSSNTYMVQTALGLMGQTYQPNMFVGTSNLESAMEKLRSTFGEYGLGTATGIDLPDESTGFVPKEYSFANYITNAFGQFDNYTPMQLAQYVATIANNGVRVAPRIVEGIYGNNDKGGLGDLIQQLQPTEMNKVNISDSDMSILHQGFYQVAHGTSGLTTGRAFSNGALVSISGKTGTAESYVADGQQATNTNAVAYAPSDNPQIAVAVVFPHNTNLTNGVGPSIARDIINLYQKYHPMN

[6] = biological target: T3, Penicillin-binding protein 2x (Streptococcus pneumoniae serotype 4 (strain ATCC BAA-334 / TIGR4), UniProt P14677); test: Displacement of Biocillin FL from Streptococcus pneumoniae 1077 PBP2X
T3 sequence (P14677 whole entry): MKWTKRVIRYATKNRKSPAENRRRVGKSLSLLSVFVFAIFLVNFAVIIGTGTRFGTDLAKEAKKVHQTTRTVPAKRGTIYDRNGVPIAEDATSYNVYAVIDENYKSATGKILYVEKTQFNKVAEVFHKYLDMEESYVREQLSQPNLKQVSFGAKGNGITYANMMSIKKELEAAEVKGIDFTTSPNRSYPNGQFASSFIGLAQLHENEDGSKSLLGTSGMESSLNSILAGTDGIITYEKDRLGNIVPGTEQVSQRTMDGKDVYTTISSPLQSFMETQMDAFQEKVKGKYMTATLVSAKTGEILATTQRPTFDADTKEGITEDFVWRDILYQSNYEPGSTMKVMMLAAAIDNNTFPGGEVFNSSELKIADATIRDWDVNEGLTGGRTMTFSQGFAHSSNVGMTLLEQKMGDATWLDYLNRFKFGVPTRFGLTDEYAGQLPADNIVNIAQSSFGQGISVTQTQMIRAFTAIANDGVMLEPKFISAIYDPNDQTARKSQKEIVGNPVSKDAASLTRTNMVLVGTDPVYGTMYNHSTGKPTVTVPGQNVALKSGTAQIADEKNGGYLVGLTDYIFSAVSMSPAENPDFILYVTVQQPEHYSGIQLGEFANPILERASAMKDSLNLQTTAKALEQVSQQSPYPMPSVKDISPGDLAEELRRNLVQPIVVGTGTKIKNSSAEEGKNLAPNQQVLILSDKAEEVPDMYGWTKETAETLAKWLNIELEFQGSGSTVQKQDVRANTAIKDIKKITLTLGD

Streptococcus pneumoniae [7] = test: Antimicrobial activity against penicillin-resistant Streptococcus pneumoniae 2527 by CLSI method; format: functional
[8] = biological target: T3, Penicillin-binding protein 2x; test: Displacement of Biocillin FL from Streptococcus pneumoniae 3665 PBP2X
Streptococcus pneumoniae [9] = test: Antimicrobial activity against penicillin-sensitive Streptococcus pneumoniae 3009 by CLSI method; format: functional
[10] = Displacement of Biocillin FL from Streptococcus pneumoniae 3665 PBP1B
[11] = Displacement of Biocillin FL from Streptococcus pneumoniae 3243 PBP1B
[12] = Displacement of Biocillin FL from Streptococcus pneumoniae 3676 PBP2A
[13] = Displacement of Biocillin FL from Streptococcus pneumoniae 3413 PBP2A
Streptococcus pneumoniae [14] = test: Antimicrobial activity against Streptococcus pneumoniae 2688 by CLSI method; format: functional
[15] = Displacement of Biocillin FL from Streptococcus pneumoniae 2527 PBP3
[16] = Displacement of Biocillin FL from Streptococcus pneumoniae 1076 PBP2A
[17] = biological target: T1, Penicillin-binding protein 1A; test: Displacement of Biocillin FL from Streptococcus pneumoniae 3676 PBP1A
Streptococcus pneumoniae [18] = test: Antimicrobial activity against penicillin-intermediate Streptococcus pneumoniae 3665 by CLSI method; format: functional
Streptococcus pneumoniae [19] = test: Antimicrobial activity against Streptococcus pneumoniae 1394 by CLSI method; format: functional
Streptococcus pneumoniae [20] = test: Antimicrobial activity against Streptococcus pneumoniae 1564 by CLSI method; format: functional
[21] = Displacement of Biocillin FL from Streptococcus pneumoniae 2527 PBP2A

CC1(C)S[C@@H]2[C@H](NC(=O)[C@H](N)c3ccc(O)cc3)C(=O)N2[C@H]1C(=O)O [AMOXICILLIN]
IC50 [1]: 246 nM
IC50 [2]: 0.05 µg/mL (≈ 0.137 µM)
IC50 [3]: 0.059 µg/mL (≈ 0.161 µM)
IC50 [4]: 1.103 µg/mL (≈ 3.02 µM)
IC50 [5]: 137 nM
IC50 [6]: 60.2 nM
MIC (Streptococcus pneumoniae [7]): 1 µg/mL (≈ 2.74 µM)
IC50 [8]: 257 nM
MIC (Streptococcus pneumoniae [9]): 0.016 µg/mL (≈ 0.0438 µM)
IC50 [10]: 0.079 µg/mL (≈ 0.216 µM)
IC50 [11]: 0.165 µg/mL (≈ 0.452 µM)
IC50 [12]: 0.066 µg/mL (≈ 0.181 µM)
IC50 [13]: 0.034 µg/mL (≈ 0.093 µM)
MIC (Streptococcus pneumoniae [14]): 16 µg/mL (≈ 43.8 µM)
IC50 [15]: 0.022 µg/mL (≈ 0.0602 µM)
IC50 [16]: 0.08 µg/mL (≈ 0.219 µM)
IC50 [17]: 1150 nM
MIC (Streptococcus pneumoniae [18]): 0.125 µg/mL (≈ 0.342 µM)
MIC (Streptococcus pneumoniae [19]): 8 µg/mL (≈ 21.9 µM)
MIC (Streptococcus pneumoniae [20]): 4 µg/mL (≈ 10.9 µM)
IC50 [21]: 0.051 µg/mL (≈ 0.14 µM)

CO/N=C(\C(=O)N[C@@H]1C(=O)N2C(C(=O)O)=C(COC(N)=O)CS[C@H]12)c1ccco1 [CEFUROXIME]
IC50 [1]: 23.6 nM
IC50 [2]: 0.009 µg/mL (≈ 0.0212 µM)
IC50 [3]: 0.024 µg/mL (≈ 0.0566 µM)
IC50 [4]: 0.923 µg/mL (≈ 2.17 µM)
IC50 [5]: 3900 nM
IC50 [6]: 14.1 nM
MIC (Streptococcus pneumoniae [7]): 8 µg/mL (≈ 18.9 µM)
IC50 [8]: 33 nM
MIC (Streptococcus pneumoniae [9]): 0.03 µg/mL (≈ 0.0707 µM)
IC50 [10]: 0.016 µg/mL (≈ 0.0377 µM)
IC50 [11]: 0.075 µg/mL (≈ 0.177 µM)
IC50 [12]: 0.011 µg/mL (≈ 0.0259 µM)
IC50 [13]: 0.002 µg/mL (≈ 0.00471 µM)
MIC (Streptococcus pneumoniae [14]): 4 µg/mL (≈ 9.43 µM)
IC50 [15]: 0.038 µg/mL (≈ 0.0895 µM)
IC50 [16]: 0.004 µg/mL (≈ 0.00943 µM)
IC50 [17]: 18.9 nM
MIC (Streptococcus pneumoniae [18]): 0.125 µg/mL (≈ 0.295 µM)
MIC (Streptococcus pneumoniae [19]): 16 µg/mL (≈ 37.7 µM)
MIC (Streptococcus pneumoniae [20]): 8 µg/mL (≈ 18.9 µM)
IC50 [21]: 0.01 µg/mL (≈ 0.0236 µM)

C[C@@H](O)[C@H]1C(=O)N2C(C(=O)O)=C([C@H]3CCCO3)S[C@H]12 [FAROPENEM]
IC50 [1]: 35 nM
IC50 [2]: 0.015 µg/mL (≈ 0.0526 µM)
IC50 [3]: 0.002 µg/mL (≈ 0.00701 µM)
IC50 [4]: 0.06 µg/mL (≈ 0.21 µM)
IC50 [5]: 24.5 nM
IC50 [6]: 687 nM
MIC (Streptococcus pneumoniae [7]): 1 µg/mL (≈ 3.5 µM)
IC50 [8]: 606 nM
MIC (Streptococcus pneumoniae [9]): 0.03 µg/mL (≈ 0.105 µM)
IC50 [10]: 0.012 µg/mL (≈ 0.0421 µM)
IC50 [11]: 0.001 µg/mL (≈ 0.0035 µM)
IC50 [12]: 0.053 µg/mL (≈ 0.186 µM)
IC50 [13]: 0.007 µg/mL (≈ 0.0245 µM)
MIC (Streptococcus pneumoniae [14]): 0.06 µg/mL (≈ 0.21 µM)
IC50 [15]: 0.007 µg/mL (≈ 0.0245 µM)
IC50 [16]: 0.035 µg/mL (≈ 0.123 µM)
IC50 [17]: 87.6 nM
MIC (Streptococcus pneumoniae [18]): 0.125 µg/mL (≈ 0.438 µM)
MIC (Streptococcus pneumoniae [19]): 0.03 µg/mL (≈ 0.105 µM)
MIC (Streptococcus pneumoniae [20]): 0.03 µg/mL (≈ 0.105 µM)
IC50 [21]: 0.025 µg/mL (≈ 0.0876 µM)

C[C@@H](O)[C@H]1C(=O)N2C(C(=O)O)=C(SCCNC=N)C[C@H]12 [IMIPENEM ANHYDROUS]
IC50 [1]: 86.9 nM
IC50 [2]: 0.233 µg/mL (≈ 0.778 µM)
IC50 [3]: 0.009 µg/mL (≈ 0.0301 µM)
IC50 [4]: 0.71 µg/mL (≈ 2.37 µM)
IC50 [5]: 154 nM
IC50 [6]: 598 nM
MIC (Streptococcus pneumoniae [7]): 0.25 µg/mL (≈ 0.835 µM)
IC50 [8]: 1980 nM
MIC (Streptococcus pneumoniae [9]): 0.008 µg/mL (≈ 0.0267 µM)
IC50 [10]: 0.077 µg/mL (≈ 0.257 µM)
IC50 [11]: 0.108 µg/mL (≈ 0.361 µM)
IC50 [12]: 0.115 µg/mL (≈ 0.384 µM)
IC50 [13]: 0.337 µg/mL (≈ 1.13 µM)
MIC (Streptococcus pneumoniae [14]): 0.25 µg/mL (≈ 0.835 µM)
IC50 [15]: 0.034 µg/mL (≈ 0.114 µM)
IC50 [16]: 0.054 µg/mL (≈ 0.18 µM)
IC50 [17]: 838 nM
MIC (Streptococcus pneumoniae [18]): 0.03 µg/mL (≈ 0.1 µM)
MIC (Streptococcus pneumoniae [19]): 0.25 µg/mL (≈ 0.835 µM)
MIC (Streptococcus pneumoniae [20]): 0.125 µg/mL (≈ 0.418 µM)
IC50 [21]: 0.059 µg/mL (≈ 0.197 µM)

CC1(C)S[C@@H]2[C@H](NC(=O)Cc3ccccc3)C(=O)N2[C@H]1C(=O)O [PENICILLIN G]
IC50 [1]: 26.9 nM
IC50 [2]: 0.016 µg/mL (≈ 0.0478 µM)
IC50 [3]: 0.001 µg/mL (≈ 0.00299 µM)
IC50 [4]: 0.248 µg/mL (≈ 0.742 µM)
IC50 [5]: 20.9 nM
IC50 [6]: 23.9 nM
MIC (Streptococcus pneumoniae [7]): 2 µg/mL (≈ 5.98 µM)
IC50 [8]: 123 nM
MIC (Streptococcus pneumoniae [9]): 0.03 µg/mL (≈ 0.0897 µM)
IC50 [10]: 0.029 µg/mL (≈ 0.0867 µM)
IC50 [11]: 0.01 µg/mL (≈ 0.0299 µM)
IC50 [12]: 0.013 µg/mL (≈ 0.0389 µM)
IC50 [13]: 0.015 µg/mL (≈ 0.0449 µM)
MIC (Streptococcus pneumoniae [14]): 8 µg/mL (≈ 23.9 µM)
IC50 [15]: 0.014 µg/mL (≈ 0.0419 µM)
IC50 [16]: 0.02 µg/mL (≈ 0.0598 µM)
IC50 [17]: 35.9 nM
MIC (Streptococcus pneumoniae [18]): 0.125 µg/mL (≈ 0.374 µM)
MIC (Streptococcus pneumoniae [19]): 4 µg/mL (≈ 12 µM)
MIC (Streptococcus pneumoniae [20]): 16 µg/mL (≈ 47.8 µM)
IC50 [21]: 0.023 µg/mL (≈ 0.0688 µM)
